Source: article PMC12275138, “Identification of glycosylated flavonoids as new physiological ligands of the hazel allergen Cor a 1: Complex structures reveal different binding orientation and specificity of mono- and disaccharide derivatives” (Food Chemistry: X, 2025)

How the values were obtained:
Cor a 1.0101 = biological target: T1, Cor a 1.0101 (Corylus avellana, UniProt Q08407); experiment: 1H, […] HSQC screening; format: binding; conditions: 60 µM protein, at least 5-fold ligand excess, pH 7.5
T1 construct: recombinant from E. coli, 15N labelled
T1 sequence (Q08407 2-160): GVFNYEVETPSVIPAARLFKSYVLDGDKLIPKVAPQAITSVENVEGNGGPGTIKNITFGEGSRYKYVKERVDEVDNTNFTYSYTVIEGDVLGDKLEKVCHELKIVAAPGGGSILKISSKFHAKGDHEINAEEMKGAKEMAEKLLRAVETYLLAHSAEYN

Cor a 1.0302 = biological target: T2, Cor a 1.0302 (Corylus avellana, UniProt A0AA49EHN2); experiment: 1H, […] HSQC screening; format: binding; conditions: 60 µM protein, at least 5-fold ligand excess, pH 7.5
T2 construct: recombinant from E. coli, 15N labelled
T2 sequence (A0AA49EHN2 1-159): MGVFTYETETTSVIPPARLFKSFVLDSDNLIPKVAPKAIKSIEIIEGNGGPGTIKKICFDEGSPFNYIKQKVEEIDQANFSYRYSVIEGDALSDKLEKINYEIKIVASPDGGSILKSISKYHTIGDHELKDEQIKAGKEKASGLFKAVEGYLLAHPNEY

For C[C@@H]1O[C@@H](Oc2c(-c3ccc(O)cc3)oc3cc(O)cc(O)c3c2=O)[C@H](O)[C@H](O)[C@H]1O [K3OR], the “1H,15N HSQC screening” value (Cor a 1.0101) was “All the other isoallergens bound to Q3OGlc, Q3OGal, and K3OR”.
O=c1c(O[C@@H]2O[C@H](CO)[C@@H](O)[C@H](O)[C@H]2O)c(-c2ccc(O)c(O)c2)oc2cc(O)cc(O)c12 [Q3OGlc] was tested, and the “1H,15N HSQC screening” value (Cor a 1.0302) was “All the other isoallergens bound to Q3OGlc, Q3OGal, and K3OR” and the “1H,15N HSQC screening” value (Cor a 1.0101) was “All the other isoallergens bound to Q3OGlc, Q3OGal, and K3OR”.
